15 molecules from patent US20260007684A1, “AMIDE DERIVATIVES FOR INHIBITING NLRP3 AND USES THEREOF” (Ventus Therapeutics U.S., Inc., priority 2023, published 2026) can be followed below.

For experiment [1], the target named is T1, human NLRP3 (Homo sapiens (Human), UniProt Q96P20). In words: Human Whole Blood (hWB) NLRP3 Assay (LPS/ATP, IL-1β). Format: cell-based.
Experiment [2] concerns the target T1, human NLRP3. In words: Scintillation Proximity (SPA) NLRP3 Assay: displacement of 3H-MCC950. The format is binding. The conditions noted are these: for IC50: read-out: SPA IC50. (In general: Scintillation proximity formats need no separation of bound from free tracer.)
Experiment [3] addresses T1, human NLRP3. In words: Human PBMC NLRP3 Assay (LPS priming, ATP stimulation, cytokine measurement). Format: cell-based.
A further experiment has as its target mouse NLRP3 (Mus musculus (Mouse), UniProt Q8R4B8). In words: Mouse Whole Blood (mWB) NLRP3 Assay (LPS/ATP, IL-1b). The format is cell-based. As for the experimental part:
Reagents: The following reagents were used: blood collection tubes (Heparin); U-bottom 96-well tissue culture (Falcon 353077); HBSS for LPS, ATP and compound dilutions (Gibco 24020-117); and LPS, E. coli serotype 026:B6 (Sigma L-2654).
Mouse IL-1b MSD assay: Blood was drawn from female CD1 mice (9 to 10 weeks) by cardiac puncture. Blood was plated (135 μL) per well in 96-well U-bottom plates. 7.5 μL of 20×LPS (20 μg/mL, final concentration of 1 μg/mL) was added and mixed by gentle pipetting, and the mixture was incubated in a TC incubator for five hours. 7.5 μL of 20× compound or vehicle per well was added and mixed by gentle pipetting. Compounds were diluted 1/50 in HBSS to prepare a 20× dilution curve in […].
The mixture was incubated for 30 minutes in a TC incubator with shaking (450 rpm). 5 μl of 31×ATP (155 mM, final concentration of 5 mM) was added and mixed by gentle pipetting. The mixture was incubated in a TC incubator for 30 minutes with shaking (450 rpm). The plate was centrifuged for 10 minutes at 800×g and −70 μL of plasma was removed. Plasma was frozen if required. Mouse IL-1b was analyzed with IL-1b MSD assay (K152TUK).
Compounds were added 30 minutes before priming the cells with LPS when TNFα was required to be quantified in the cytokine panel to confirm selectivity.

[4] abbreviates: hWB IC50, human whole blood, LPS/ATP, IL-1β.
[5] abbreviates: PBMC IC50, human PBMC, LPS priming, ATP stimulation.
Where [6] appears, read: mouse whole blood, LPS/ATP, IL-1b.
The mark [7] stands for this setting: human whole blood, LPS/ATP, IL-1β, read-out: hWB IC50.
[8] abbreviates: relative to Comparative Example A*.
[9] abbreviates: human PBMC, LPS priming, ATP stimulation, read-out: PBMC IC50.

Like-named read-outs stand apart in the source and are kept apart here. Where only a bound is given, the exact number is not on record here.

Sequence of mouse NLRP3 (Q8R4B8 whole entry): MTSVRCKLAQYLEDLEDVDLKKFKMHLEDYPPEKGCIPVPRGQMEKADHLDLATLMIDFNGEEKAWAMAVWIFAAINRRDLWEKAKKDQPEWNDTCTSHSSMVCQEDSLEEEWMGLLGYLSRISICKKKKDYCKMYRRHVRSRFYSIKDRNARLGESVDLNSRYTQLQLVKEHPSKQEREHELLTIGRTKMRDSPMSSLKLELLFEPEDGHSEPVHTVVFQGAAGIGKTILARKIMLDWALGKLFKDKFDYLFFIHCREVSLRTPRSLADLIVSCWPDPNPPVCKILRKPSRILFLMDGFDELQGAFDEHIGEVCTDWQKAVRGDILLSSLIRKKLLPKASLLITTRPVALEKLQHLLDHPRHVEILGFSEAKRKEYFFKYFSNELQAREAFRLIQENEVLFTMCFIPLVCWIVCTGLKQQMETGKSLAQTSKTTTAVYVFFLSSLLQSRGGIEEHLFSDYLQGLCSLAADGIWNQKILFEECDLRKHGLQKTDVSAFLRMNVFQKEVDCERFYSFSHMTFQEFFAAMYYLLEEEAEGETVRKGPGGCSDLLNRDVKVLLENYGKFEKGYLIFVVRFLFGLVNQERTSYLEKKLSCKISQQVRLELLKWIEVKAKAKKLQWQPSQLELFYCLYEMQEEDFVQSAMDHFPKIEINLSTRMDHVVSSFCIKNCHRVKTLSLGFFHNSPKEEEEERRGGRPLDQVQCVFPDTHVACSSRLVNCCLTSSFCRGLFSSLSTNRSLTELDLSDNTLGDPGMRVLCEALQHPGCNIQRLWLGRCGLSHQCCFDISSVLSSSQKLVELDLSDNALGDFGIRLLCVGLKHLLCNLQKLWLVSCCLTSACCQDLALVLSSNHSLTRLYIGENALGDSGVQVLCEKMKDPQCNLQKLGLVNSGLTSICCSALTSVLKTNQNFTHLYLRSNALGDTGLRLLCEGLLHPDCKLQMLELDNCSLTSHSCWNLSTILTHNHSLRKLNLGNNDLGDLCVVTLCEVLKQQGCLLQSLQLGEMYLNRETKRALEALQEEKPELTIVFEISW
T1 sequence (Q96P20 whole entry): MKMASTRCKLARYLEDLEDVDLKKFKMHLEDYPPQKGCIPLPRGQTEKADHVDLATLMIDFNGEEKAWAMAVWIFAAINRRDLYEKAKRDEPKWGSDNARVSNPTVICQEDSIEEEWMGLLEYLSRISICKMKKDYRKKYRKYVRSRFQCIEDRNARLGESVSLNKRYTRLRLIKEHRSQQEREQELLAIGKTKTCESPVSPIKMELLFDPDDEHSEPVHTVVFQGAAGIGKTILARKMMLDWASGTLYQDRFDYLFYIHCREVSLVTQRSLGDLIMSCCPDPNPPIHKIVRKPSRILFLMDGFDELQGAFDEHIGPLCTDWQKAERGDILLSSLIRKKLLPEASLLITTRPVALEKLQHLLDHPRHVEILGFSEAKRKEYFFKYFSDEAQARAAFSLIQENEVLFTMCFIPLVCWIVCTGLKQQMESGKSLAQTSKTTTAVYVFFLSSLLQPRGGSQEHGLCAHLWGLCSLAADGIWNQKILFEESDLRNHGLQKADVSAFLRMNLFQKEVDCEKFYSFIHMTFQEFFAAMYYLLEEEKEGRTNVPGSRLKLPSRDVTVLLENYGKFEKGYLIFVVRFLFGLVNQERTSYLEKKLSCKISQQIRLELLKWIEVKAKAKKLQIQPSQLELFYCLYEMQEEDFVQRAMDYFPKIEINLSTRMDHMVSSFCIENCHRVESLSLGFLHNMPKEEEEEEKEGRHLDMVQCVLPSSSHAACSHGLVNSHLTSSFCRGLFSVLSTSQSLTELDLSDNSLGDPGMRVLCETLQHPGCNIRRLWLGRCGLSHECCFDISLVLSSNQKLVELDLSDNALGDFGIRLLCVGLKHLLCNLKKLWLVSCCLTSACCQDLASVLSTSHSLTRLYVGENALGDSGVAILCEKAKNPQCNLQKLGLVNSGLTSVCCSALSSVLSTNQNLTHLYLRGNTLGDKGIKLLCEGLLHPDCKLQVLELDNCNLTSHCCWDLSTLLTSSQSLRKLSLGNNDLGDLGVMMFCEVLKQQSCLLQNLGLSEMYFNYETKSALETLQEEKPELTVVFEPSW

Turning to `C[C@@H]1C[C@@H](NC(=O)C2(c3ccc(OC(F)F)cc3)CC2)[C@H]2CC[C@@H]1N2c1nnn[nH]1` (single isomer, unassigned) [35A*], the concentration for half-maximal inhibition (IC50) against human NLRP3 [1] (setting [4]) was less than 1 µM; on human NLRP3 [2] (displacement of 3H-MCC950), less than 1 µM; on human NLRP3 [3] (setting [5]) it was less than 0.01 µM; against mouse NLRP3 (setting [6]), less than 1 µM.

In the case of `O=C(N[C@H]1CN(c2nnn[nH]2)CCC(F)(F)C1)C1(c2ccc(Cl)cc2)CC1` (single isomer, unassigned) [53A*], the IC50 at human NLRP3 [1] (setting [7]), on human NLRP3 [2] (displacement of 3H-MCC950) and on mouse NLRP3 (setting [6]) was less than 1 µM each time.

Turning to `O=C(N[C@@H]1CCCN(c2nnn[nH]2)C1)C1(c2ccc(Cl)cc2)CC1` [Compound 10A, (R)-N-(1-(1H-tetrazol-5-yl)piperidin-3-yl)-1-(4-chlorophenyl)cyclopropane-1-carboxamide], the IC50 is greater than 3 µM at human NLRP3 [1] (setting [7]); 7.3 µM at human NLRP3 [1] (read-out: hWB IC50); 1 to 10 µM on human NLRP3 [2] (displacement of 3H-MCC950); 9.5 µM at human NLRP3 [2]; greater than 0.5 µM at human NLRP3 [3] (setting [9]); 2.1 µM on human NLRP3 [3] (read-out: PBMC IC50). Also, the 50% inhibitory concentration (IC50) against mouse NLRP3 was 1.9 µM; against mouse NLRP3 (setting [6]) it was 1 to 2 µM. Further, the “fold increase in potency as measured by hWB IC50” value (“fold increase … by hWB IC50” for short) on human NLRP3 [1] (setting [8]) is reported as greater than 6 fold. Further, the “fold increase in binding activity (SPA IC50)” value (“fold increase … (SPA IC50)” below) at human NLRP3 [2] (setting [8]) was greater than 40 fold. Moreover, the “fold increase in potency as measured by PBMC IC50” value (shortened to “fold increase … by PBMC IC50”) is listed as 4 fold at human NLRP3 [3] (relative to Comparative Example F); greater than 47 fold at human NLRP3 [3] (relative to Comparative Example G); 5 fold at human NLRP3 [3] (relative to Comparative Example H); greater than 47 fold on human NLRP3 [3] (relative to Comparative Example J1); greater than 47 fold at human NLRP3 [3] (relative to Comparative Example J2). Besides, at mouse NLRP3 (relative to Comparative Example B1), the “fold increase in potency as measured by mWB IC50” value (from here on “fold increase … by mWB IC50”) was determined as 26 fold.

Turning to `O=C(N[C@@H]1CCCCN(c2nnn[nH]2)C1)C1(c2ccc(Cl)cc2)CC1` [Compound 51A, 1-(4-chlorophenyl)-N-[(3R)-1-(1H-tetrazol-5-yl)azepan-3-yl]cyclopropanecarboxamide], the IC50 at human NLRP3 [1] (setting [7]) is less than 1 µM; on human NLRP3 [1] (read-out: hWB IC50), 0.72 µM; at human NLRP3 [2] (displacement of 3H-MCC950), 1 to 10 µM; on human NLRP3 [2] it was 2.2 µM; on human NLRP3 [3] (setting [9]) it was 0.01 to 0.1 µM; at human NLRP3 [3] (read-out: PBMC IC50), 0.044 µM. Besides, the IC50 at mouse NLRP3 was 1.8 µM; on mouse NLRP3 (setting [6]) it was 1 to 2 µM. Moreover, at human NLRP3 [1] (relative to Compound 10A), the “fold increase … by hWB IC50” value was greater than 10 fold. In addition, the “fold increase … (SPA IC50)” value at human NLRP3 [2] (relative to Compound 10A) is greater than 4 fold. In addition, the “fold increase … by PBMC IC50” value at human NLRP3 [3] (relative to Compound 10A) is on record as 48 fold.

As to `C[C@H]1C[C@@H](NC(=O)C2(c3ccc(Cl)cc3O)CC2)CN(c2nnn[nH]2)C1` [Compound 47A, 1-(4-chloro-2-hydroxyphenyl)-N-((3R,5S)-5-methyl-1-(1H-tetrazol-5-yl)piperidin-3-yl)cyclopropane-1-carboxamide], the IC50 was less than 1 µM on human NLRP3 [1] (setting [7]); 0.22 µM on human NLRP3 [1] (read-out: hWB IC50); less than 1 µM on human NLRP3 [2] (displacement of 3H-MCC950); 0.048 µM on human NLRP3 [2]; less than 0.01 µM at human NLRP3 [3] (setting [9]); 0.0067 µM on human NLRP3 [3] (read-out: PBMC IC50). The IC50 was 0.035 µM at mouse NLRP3 and less than 1 µM against mouse NLRP3 (setting [6]). For the same molecule, the “fold increase … by hWB IC50” value on human NLRP3 [1] (relative to Compound 46A) is on record as greater than 11 fold. Moreover, the “fold increase … (SPA IC50)” value at human NLRP3 [2] (relative to Compound 46A) is listed as 18 fold. Also, at human NLRP3 [3] (relative to Compound 46A), the “fold increase … by PBMC IC50” value came out at 15 fold. The “fold increase … by mWB IC50” value at mouse NLRP3 (relative to Compound 46A) turned out to be 4.9 fold.

For the molecule `C[C@H]1C[C@@H](NC(=O)C2(c3c(O)cc(C4CC4)cc3C(F)F)CC2)CN(c2nnn[nH]2)C1` (single isomer, unassigned) [97A*], the IC50 at human NLRP3 [2] (displacement of 3H-MCC950) is less than 1 µM; on human NLRP3 [3] (setting [9]), 0.1 to 0.5 µM; at mouse NLRP3 (setting [6]), less than 1 µM.

Consider `O=C(N[C@@H]1CC[C@H]2CC[C@@H]1N2c1nnn[nH]1)C1(c2ccc(C(F)(F)F)cc2O)CC1` (single isomer, unassigned) [34C*], for which the IC50 is less than 1 µM at human NLRP3 [1] (setting [4]), less than 1 µM at human NLRP3 [2] (displacement of 3H-MCC950), 0.01 to 0.1 µM against human NLRP3 [3] (setting [5]) and less than 1 µM at mouse NLRP3 (setting [6]).

Regarding `O=C(Nc1cccc(-c2nnn[nH]2)c1)C1(c2ccc(Cl)cc2)CC1` [Comparative Example B1, N-(3-(1H-tetrazol-5-yl)phenyl)-1-(4-chlorophenyl)cyclopropane-1-carboxamide, reference compound], the values for the half-maximal inhibitory concentration (IC50) at human NLRP3 [2], at human NLRP3 [3] (read-out: PBMC IC50) and at mouse NLRP3 were 8 µM, 0.48 µM and greater than 50 µM, respectively.

Consider `C[C@@H]1C[C@@H](NC(=O)C2(c3ccc(C(F)(F)F)cc3)CC2)[C@H]2CC[C@@H]1N2c1nnn[nH]1` [79A*, N-((1R,2R,4R,5S)-4-methyl-8-(1H-tetrazol-5-yl)-8-azabicyclo[3.2.1]octan-2-yl)-1-(4-(trifluoromethyl)phenyl)cyclopropane-1-carboxamide], for which the 50% inhibitory concentration (IC50) at human NLRP3 [1] (setting [4]) is less than 1 µM; on human NLRP3 [2] (displacement of 3H-MCC950), less than 1 µM; on human NLRP3 [3] (setting [5]) it was less than 0.01 µM; on mouse NLRP3 (setting [6]), less than 1 µM.

On to `C[C@H]1C[C@@H](NC(=O)C2(c3ccc(Cl)cc3)CC2)CN(c2nnn[nH]2)C1` [Compound 46A, 1-(4-chlorophenyl)-N-((3R,5S)-5-methyl-1-(1H-tetrazol-5-yl)piperidin-3-yl)cyclopropane-1-carboxamide], for which the 50% inhibitory concentration (IC50) at human NLRP3 [1] (setting [7]) is 2 to 3 µM; at human NLRP3 [1] (read-out: hWB IC50) it was 2.5 µM; on human NLRP3 [2] (displacement of 3H-MCC950) it was less than 1 µM; at human NLRP3 [2], 0.86 µM; at human NLRP3 [3] (setting [9]) it was 0.01 to 0.1 µM; on human NLRP3 [3] (read-out: PBMC IC50) it was 0.1 µM. Further, the IC50 is 0.17 µM against mouse NLRP3 and less than 1 µM on mouse NLRP3 (setting [6]). Also, the “fold increase … by hWB IC50” value on human NLRP3 [1] (relative to Compound 10A) is recorded as 3 fold. On human NLRP3 [2] (relative to Compound 10A), the “fold increase … (SPA IC50)” value stood at 11 fold. Further, at human NLRP3 [3] (relative to Compound 10A), the “fold increase … by PBMC IC50” value is 21 fold. Moreover, the “fold increase … by mWB IC50” value on mouse NLRP3 (relative to Compound 10A) turned out to be 11 fold.

Regarding `O=C(N[C@@H]1C[C@H](C(F)(F)F)CN(c2nnn[nH]2)C1)C1(c2ccc(Cl)cc2)CC1` [Compound 45A, 1-(4-chlorophenyl)-N-[(3R,5S)-1-(1H-tetrazol-5-yl)-5-(trifluoromethyl)-3-piperidyl]cyclopropanecarboxamide], the results for the IC50 at human NLRP3 [1] (setting [7]), at human NLRP3 [2] (displacement of 3H-MCC950) and on mouse NLRP3 (setting [6]) were 2 to 3 µM, 1 to 10 µM and less than 1 µM, respectively.

Consider `C[C@H]1CCN(c2nnn[nH]2)C[C@@H]1NC(=O)C1(c2ccc(Cl)cc2)CC1` [Compound 49C, 1-(4-chlorophenyl)-N-[(3R,4S)-4-methyl-1-(1H-tetrazol-5-yl)-3-piperidyl]cyclopropanecarboxamide], for which the half-maximal inhibitory concentration (IC50) fell in the range of 2 to 3 µM on human NLRP3 [1] (setting [7]), 1 to 10 µM at human NLRP3 [2] (displacement of 3H-MCC950), 0.1 to 0.5 µM on human NLRP3 [3] (setting [9]) and 2 to 3 µM at mouse NLRP3 (setting [6]).

Consider `C[C@H]1C[C@@H](NC(=O)C2(c3ccc(C(F)(F)F)cc3O)CC2)CN(c2nnn[nH]2)C1` [Compound 16A, 1-(2-hydroxy-4-(trifluoromethyl)phenyl)-N-((3R,5S)-5-methyl-1-(1H-tetrazol-5-yl)piperidin-3-yl)cyclopropane-1-carboxamide], for which the concentration for half-maximal inhibition (IC50) at human NLRP3 [1] (setting [7]) is less than 1 µM; on human NLRP3 [1] (read-out: hWB IC50) it was 0.061 µM; at human NLRP3 [2] (displacement of 3H-MCC950) it was less than 1 µM; on human NLRP3 [2] it was 0.041 µM; on human NLRP3 [3] (setting [9]), less than 0.01 µM; on human NLRP3 [3] (read-out: PBMC IC50) it was 0.0043 µM. The IC50 at mouse NLRP3 was 0.082 µM; at mouse NLRP3 (setting [6]), less than 1 µM.

Take `C[C@@H]1CCN(c2nnn[nH]2)C[C@H](NC(=O)C2(c3ccc(Cl)cc3)CC2)C1` (single isomer, unassigned) [12A*, 1-(4-chlorophenyl)-N-(5-methyl-1-(1H-tetrazol-5-yl)azepan-3-yl)cyclopropane-1-carboxamide]: the 50% inhibitory concentration (IC50) is less than 1 µM on human NLRP3 [1] (setting [7]), less than 1 µM at human NLRP3 [2] (displacement of 3H-MCC950), less than 0.01 µM at human NLRP3 [3] (setting [9]) and less than 1 µM against mouse NLRP3 (setting [6]).

With `O=C(N[C@@H]1CCCN(c2nnn[nH]2)C1)C1(c2ccc(Br)cc2)CC1` [Compound 39A, 1-(4-bromophenyl)-N-[(3R)-1-(1H-tetrazol-5-yl)-3-piperidyl]cyclopropanecarboxamide], the results for the half-maximal inhibitory concentration (IC50) on human NLRP3 [1] (setting [7]), on human NLRP3 [2] (displacement of 3H-MCC950) and against mouse NLRP3 (setting [6]) were 1 to 2 µM, 1 to 10 µM and 1 to 2 µM, respectively.

One may read the IC50 as the concentration needed to halve the response being measured.
